Measured values published in patent US9115122B2, “Non-ATP dependent inhibitors of extracellular signal-regulated kinase (ERK)” (UNIVERSITY OF MARYLAND, BALTIMORE, priority 2012, dated 2015).

Experiments:
Type in all cases: cell-based
RPMI-7951 melanoma cells = assay: Cell proliferation WST-1 assay, single dose (Example 4); settings: 100 μM, 48 hours
Outline: (§1)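 Tetrazolium (WST-1) read-out of proliferation, values relative to DMSO-only wells; cells treated for 48 h after 16-20 h recovery.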

HL-60 leukemic cells = assay: as above; settings: 100 μM, 48 hours
Outline: as §1

[1] = test system: HeLa cervical carcinoma cells; assay: as above; settings: 100 μM, 48 hours
Outline: as §1

A375 melanoma cells [2] = assay: as above; settings: 100 μM, 48 hours
Outline: as §1

[3] = test system: Jurkat T-cell leukemia cells; assay: as above; settings: 100 μM, 48 hours
Outline: as §1

SK-MEL-28 melanoma cells [4] = assay: as above; settings: 100 μM, 48 hours
Outline: as §1

[5] = test system: activator protein-1 (AP-1) promoter; assay: AP-1 promoter luciferase assay, HeLa cells (Example 4)
Protocol: (§2) HeLa cells were seeded in 24-well plates (4×10^4 cells/well) and incubated 18 hours prior to achieve ˜60-70% confluent. Cells were transfected with activator protein-1 (pAP1(PMA)-TA-Luc; Clontech) or the serum response element (pGL4.33-SRE; Promega) luciferase reporter plasmids (250 ng/well) using Lipofectamine™ (Invitrogen). After 16 hours, cells were treated with increasing amount of compounds as indicated for 20 minutes, followed by stimulation with EGF (25 ng/mL) for 4.5 hr. The luciferase activity in the cell extracts was determined with a Dual Luciferase Assay System (Promega) according to the manufacturer's instructions. Luciferase activities were monitored with a Lumat LB 9507 luminometer (Berthold Technology) and data were normalized to the amount of protein in each sample.

HeLa cells = assay: Dose-response growth inhibition (GI50) of select compounds; settings: Homo sapiens, HeLa
Jurkat cells = assay: as above; settings: Homo sapiens, Jurkat
[6] = test system: serum response element (SRE); assay: SRE promoter luciferase assay, HeLa cells (Example 4)
Protocol: as §2

RPMI7951 melanoma cells [7] = assay: Dose-response growth inhibition (GI50) of select compounds; settings: Homo sapiens, RPMI-7951, 48 h, two days
Protocol: (§3) An example of the dose response curve for compound 30h and the BRaf inhibitor PLX4032 for inhibiting the growth of melanoma cell lines is shown in FIG. 14. […] A summary of GI50 values for select compounds along with comparisons to know ERK pathway inhibitors in various cell lines is shown in Table 13. […] First, thiazolidinedione compounds have been identified to be selective inhibitors of cancer cell lines containing activated ERK signaling. Second, changes in the 4-ethoxyphenyl component of the parent compound 76 improve selectivity and potency for inhibiting melanoma cell growth. Third, compound 30h is a potent inhibitor of melanoma cell lines that have become resistant to the clinically relevant BRaf and MEK inhibitors. […] Lastly, 30h is as potent as the ATP-competitive pyrazolopyridazinamine ERK inhibitor (FR180204) in preventing melanoma cell proliferation and provides an alternative non-ATP-dependent approach to target cancer cells that are dependent on active ERK signaling.
(§4) Melanoma cells (A375, SK-MEL-28, and RPMI7951) were seeded at a density of 5,000 per well in 96-well plate. After overnight incubation, cells were treated with varying doses of PLX4032 (A) or 31h (B) for two days. Cell viability was determined by the addition of Cell Titer-Blue Reagent (20 μL/well) followed by 2 hours of incubation at 37° C. after which fluorescence was recorded (555/585 nm). Cell viability was expressed as percentage of vehicle control and data represent the average of three individual experiments.

A375 melanoma cells [8] = assay: as above; settings: Homo sapiens, A-375, 48 h, two days
Protocol: as §3, §4

SK-MEL-28 melanoma cells [9] = assay: as above; settings: Homo sapiens, SK-MEL-28, 48 h, two days
Protocol: as §3, §4

RPMI7951 melanoma cells [10] = assay: Cell proliferation, fluorescent Cell Titer Blue Assay (Example 1); settings: Homo sapiens, RPMI-7951; 48 hours
Protocol: (§5) FIG. 5. Dose dependent inhibition of cancer cell proliferation in vitro by SF-3-026 and analogs. A375 (closes circles), RPM17951 (closed squares), HeLa (open circles), or Jurkat (open squares) cells were treated for 48 hours with indicated concentration of (a) SF-3-026, (b) SF-2-027, (c) SF-2-029, or (d) SF-2-030 and cell proliferation was assessed by the fluorescent Cell Titer Blue Assay. The data were reproduced in 3 separate experiments.
(§6) Cells were seeded at 25,000 cells/well in 96-well plate and cultured overnight. Cells were treated for 24 hours with various concentrations of compounds and cell viability or caspase 3/7 activity were measured according to manufacturer's instructions using the fluorescent Cell Titer Blue Assay (Promega) or luminescent Caspase 3/7 Glo Assay (Promega).
(§7) It was next determined whether inhibition of AP-1 proteins by SF-3-026 and analogs affected the proliferation of cancer cells driven by mutations that constitutively activate the ERK1/2 pathway. For these experiments, A375 and RPMI7951 melanoma cells, which have a valine to glutamate mutation on residue 600 in BRaf that causes constitutive ERK1/2 activation, were chosen. Moreover, RPMI7951 cells are resistant to clinically used BRaf inhibitors due to overexpression of MAP3K8 (the gene encoding COT/Tp12) that re-activates ERK1/2 signaling. Both melanoma cells lines were treated with varying doses of SF-3-026 or analogs and cell viability was compared to HeLa cervical carcinoma and Jurkat T-cell leukemia cells, which are p53 defective but contain no known activating mutations in the ERK1/2 pathway.

[11] = test system: HeLa cervical carcinoma cells; assay: as above; settings: Homo sapiens, 48 hours
Protocol: as §5, §6, §7

A375 melanoma cells [12] = assay: as above; settings: Homo sapiens, A-375; 48 hours
Protocol: as §5, §6, §7

[13] = test system: Jurkat T-cell leukemia cells; assay: as above; settings: Homo sapiens, 48 hours
Protocol: as §5, §6, §7

[14] = test system: MEK1-induced AP-1 promoter activity; assay: AP-1 promoter luciferase assay, HeLa cells expressing active MEK1 mutant; settings: Homo sapiens, 4 hours, read-out: IC50 inhibition of MEK1-induced AP-1 promoter activity
Protocol: FIG. 4. Compound SF-3-026 and analogs inhibit SRE and AP-1 transcription factor function. (a) HeLa cells were transfected with constructs containing SRE or AP-1 promoters driving luciferase expression and then stimulated with EGF in the presence or absence of SF-3-026 for 4 hours followed by measurements of luciferase activity. Cells treated with U0126 were used as a positive inhibitor control. (b and c) HeLa cells were prepared and treated as in (a) with the indicated concentrations of SF-3-026 or analogs for 4 hours followed by the measurement of luciferase activity regulated by the SRE (b) or AP-1 (c) promoters. Data in (b and c) were normalized to EGF-only treatment and represent the mean and standard deviation from three independent experiments. (d) Compound SF-3-026 and analogs inhibit MEK1-induced AP-1 transcription factor function. HeLa cells were transfected with the AP-1 promoter construct and a constitutively active MEK1 mutant in the presence (10 μM) or absence of the MEK1/2 inhibitor (U0126) or an ATP-competitive ERK inhibitor (ERKi) for 4 hours followed by measurements of luciferase activity. (e) Cells expressing the AP-1 promoter and an active MEK-1 construct were treated with the indicated concentrations of SF-3-026 or analogs for 4 hours followed by the measurement of luciferase activity. Data in (e) were normalized to active MEK1-only treatment and represent the mean and standard deviation from three independent experiments.
as §2, with “(40,000” for “(4×10^4”, “hours” for “hours prior”, “pre-treated” for “treated”, “varying amounts” for “increasing amount”, “hr. In some experiments, cells transfected with the pAP1(PMA)-TA-Luc promoter and a constitutively active MEK1 mutant cDNA were treated with varying amounts of compounds during the last 4 hours of incubation.” for “hr.”, “sample. […]” for “sample.”

AP-1 promoter = AP-1 promoter luciferase assay, EGF-stimulated HeLa cells (Example 1); settings: Homo sapiens, EGF stimulation, 4 hours, read-out: IC50 inhibition of the AP-1 promoter
Protocol: FIG. 4. Compound SF-3-026 and analogs inhibit SRE and AP-1 transcription factor function. (a) HeLa cells were transfected with constructs containing SRE or AP-1 promoters driving luciferase expression and then stimulated with EGF in the presence or absence of SF-3-026 for 4 hours followed by measurements of luciferase activity. Cells treated with U0126 were used as a positive inhibitor control. (b and c) HeLa cells were prepared and treated as in (a) with the indicated concentrations of SF-3-026 or analogs for 4 hours followed by the measurement of luciferase activity regulated by the SRE (b) or AP-1 (c) promoters. Data in (b and c) were normalized to EGF-only treatment and represent the mean and standard deviation from three independent experiments. (d) Compound SF-3-026 and analogs inhibit MEK1-induced AP-1 transcription factor function. […]
HeLa cells were seeded in 24-well plates (40,000 cells/well) and incubated 18 hours to achieve ˜60-70% confluent. […] The luciferase activity in the cell extracts was determined with a Dual Luciferase Assay System (Promega) according to the manufacturer's instructions. Luciferase activities were monitored with a Lumat LB 9507 luminometer (Berthold Technology) and data were normalized to the amount of protein in each sample. […]

SMILES | Cell Viability (% of Vehicle) RPMI-7951 (RPMI-7951 melanoma cells) | Cell Viability (% of Vehicle) HL-60 (HL-60 leukemic cells) | Cell Viability (% of Vehicle) HeLa [1] | Cell Viability (% of Vehicle) A375 (A375 melanoma cells [2]) | Cell Viability (% of Vehicle) Jurkat [3] | Cell Viability (% of Vehicle) SK-MEL-28 (SK-MEL-28 melanoma cells [4]) | GI50 (HeLa cells) [µM] | GI50 (Jurkat cells) [µM] | GI50 (RPMI7951 melanoma cells [7]) [µM] | GI50 (A375 melanoma cells [8]) [µM] | GI50 (SK-MEL-28 melanoma cells [9]) [µM] | further results
CC(C)COc1ccc(/C=C2\SC(=O)N(CCN)C2=O)cc1 [Compound 30g, (Z)-3-(2-aminoethyl)-5-(4-isobutoxybenzylidene)thiazolidine-2,4-dione] | 0.3 ± 0.04 % of Vehicle | 5.0 ± 2 % of Vehicle | 48 ± 3 % of Vehicle | 1.8 ± 0.5 % of Vehicle | 91 ± 8 % of Vehicle | 0.8 ± 0.2 % of Vehicle | ~100 | > 100 | 11 | 22 | 36 | IC50 ([5]; Homo sapiens, EGF 25 ng/mL, read-out: estimated IC50 AP-1 promoter activity): ≤ 5 µM; IC50 ([6]; Homo sapiens, EGF 25 ng/mL, read-out: estimated IC50 SRE promoter activity): ≤ 5 µM
NCCN1C(=O)S/C(=C\c2ccc(OCc3ccccc3)cc2)C1=O [Compound 30h, (Z)-3-(2-aminoethyl)-5-(4-(benzyloxy)benzylidene)thiazolidine-2,4-dione] | 0.2 ± 0.04 % of Vehicle | 5.2 ± 2 % of Vehicle | 59 ± 3 % of Vehicle | 0.6 ± 0.4 % of Vehicle | 87 ± 5 % of Vehicle | 1.0 ± 1 % of Vehicle | > 100 | > 100 | 7 | 7 | 9 | inhibition of ERK-mediated AP-1 promoter activity ([5]; EGF): less potent than compounds 76 and 30g at lower concentrations; inhibition of ERK-mediated SRE promoter activity ([6]; EGF): less potent than compounds 76 and 30g at lower concentrations
O=S1(=O)C=CC(OS(=O)(=O)c2ccc(-c3ccccc3)cc2)C1 (centres unmarked) [SF-3-029] | – | – | – | – | – | – | – | – | – | – | – | GI50 (RPMI7951 melanoma cells [10]): 4.9 µM; GI50 [11]: 25 µM; GI50 (A375 melanoma cells [12]): 7.9 µM; GI50 [13]: > 50 µM; IC50 [14]: 5 to 10 µM; IC50 (AP-1 promoter): < 10 µM
